Assay results reported in PubChem BioAssay AID651866 (The Scripps Research Institute Molecular Screening Center, 2012).

Biological target: Protein-arginine deiminase type-3 (Homo sapiens) (UniProt Q9ULW8)
Assay: PubChem AID 651866
Details: recombinant PAD3, citrulline colorimetric, time-dependent inactivation; active compounds read high

Protein-arginine deiminase type-3 (Homo sapiens), sequence (Q9ULW8 whole entry, looked up): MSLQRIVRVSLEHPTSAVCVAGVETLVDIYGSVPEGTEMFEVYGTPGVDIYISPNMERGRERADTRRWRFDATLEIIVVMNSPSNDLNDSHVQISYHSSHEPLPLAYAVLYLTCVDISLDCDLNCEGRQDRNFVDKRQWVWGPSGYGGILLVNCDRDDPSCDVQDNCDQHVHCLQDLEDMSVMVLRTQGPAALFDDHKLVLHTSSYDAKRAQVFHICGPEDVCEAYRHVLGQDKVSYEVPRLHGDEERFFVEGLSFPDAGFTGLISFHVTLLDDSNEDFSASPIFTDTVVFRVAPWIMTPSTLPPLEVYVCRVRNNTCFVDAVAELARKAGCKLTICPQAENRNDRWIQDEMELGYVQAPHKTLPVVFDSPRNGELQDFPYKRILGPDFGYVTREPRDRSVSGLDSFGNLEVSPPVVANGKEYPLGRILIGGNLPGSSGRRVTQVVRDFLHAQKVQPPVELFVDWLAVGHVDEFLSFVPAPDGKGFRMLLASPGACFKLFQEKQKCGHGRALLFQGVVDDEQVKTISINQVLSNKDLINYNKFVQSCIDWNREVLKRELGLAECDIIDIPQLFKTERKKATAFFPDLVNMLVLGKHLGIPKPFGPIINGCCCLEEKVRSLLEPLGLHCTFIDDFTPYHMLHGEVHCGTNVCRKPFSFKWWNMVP

## NC1=CC(=O)c2ccc(-c3cccc(C(=O)O)n3)nc2C1=O
  kinact/KI: 31.7 M⁻¹ s⁻¹
